From patent publication US20120157356A1, “Hydraulic fracturing with slick water from dry blends” (priority 2010, published 2012)

System: not listed separately
Assay: Flowability: drainage time through a wide-mouth funnel
Conditions: dry powder flowability
Excerpt: Also, the powder must be flowable (low angle of repose), with the flow measured as the drainage time through a wide-mouth funnel.

SMILES | Time in Minutes (drainage time through a wide-mouth funnel)
[Cl-].[K+] [Potassium Chloride] | 0.05 min
N.N.O=S(=O)(O)OOS(=O)(=O)O [Ammonium Persulfate] | 0.2 min

System: Rats
Assay: not given
Conditions: no unit in table, b36: normally expressed as mg per kilogram of body mass; cited from earlier work

SMILES | Acute Oral Effect LD50 Rats
O=S([O-])O.[Na+] [Sodium Bisulfite] | 1,131
O=C1O[C@H]([C@H](O)CO)C([O-])=C1O.[Na+] [Sodium Erythorbate] | 5,000
Cc1cc(O)cc(C)c1Cl [PCMX] | 3,830
C[N+](C)(C)CCO.[Cl-] [Choline Chloride] | 3,400
C[N+](C)(C)C.[Cl-] [Tetramethylammonium Chloride] | 94
CN1CSC(=S)N(C)C1 [Dazomet, tetrahydro-3,5-dimethyl-2H-1,3,5-thiadiazine-2-thione] | 519
O=S([O-])([O-])=S.[Na+].[Na+] [Sodium Thiosulfate] | 2,890

System: not listed separately
Assay: Apparent density by volume increase of a dispersion of known weight of solid in mineral oil
Type: physicochemical
Conditions: not given
Excerpt: If batch mix operations (illustrated in FIG. 1) are used so that time of mixing is not critical, particle size of the components used in the blend can be as large as 18 mesh (1.0 mm). However, if the mixing is to be based on a continuous mix process (FIG. 2), timing becomes more critical, requiring that the polymeric components disperse and begin hydration prior to reaching the well head. In this case, the particle size of the components preferably is 40 mesh (0.420 mm) or smaller, but more preferably 80 mesh (0.177 mm) or smaller. Also, it is preferred that the particle size and the apparent density of all the components be about the same (to minimize segregation during shipping and storage). Apparent densities of selected commercial components, as measured by measuring volume increase of a dispersion of a known weight of solid in mineral oil, are shown in Table 2. A dry blend preferably will be formed of components for each function in a fracturing fluid having apparent densities and particle sizes matched to the best extent possible. Inert solids, such as fumed silica, may be combined with active ingredients to form solid particles having a preferred density.

SMILES | Apparent Density
CN1CSC(=S)N(C)C1 [Dazomet 99%] | 1.111 g/mL
O=S([O-])([O-])=S.[Na+].[Na+] [Sodium Thiosulfate] | 1.667 g/mL
